{
  "source": "paper PMC4640888",
  "about": "“Discovery and Characterization of a Potent Interleukin-6 Binding Peptide with Neutralizing Activity In Vivo” (PLoS ONE, 2015)",
  "key": {"[1]": {"target": "IL-6-induced pSTAT3 in U937 cells (Homo sapiens, UniProt P05231)", "sequence (P05231 30-212)": "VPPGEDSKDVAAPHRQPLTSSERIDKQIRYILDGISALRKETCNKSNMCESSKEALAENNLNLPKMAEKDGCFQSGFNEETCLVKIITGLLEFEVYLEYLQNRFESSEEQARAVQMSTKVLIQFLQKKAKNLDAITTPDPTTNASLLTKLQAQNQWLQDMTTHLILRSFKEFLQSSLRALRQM", "experiment": "pSTAT3 HTRF assay in U937 cells", "assay_type": "cell-based", "protocol": "Peptides were serially diluted in medium containing 10% fetal bovine serum (FBS)/4% DMSO, then added to recombinant IL-6 (Xtal Biostructures, Inc., Natick, MA) at 28.2 ng/mL and the resulting plate was incubated at room temperature with shaking for 2.5 h at 37°C. […] After incubation for 12 min at 37°C the cells were centrifuged at 4°C (1400 rpm for 5 min) and the media was removed from the plates. Cells were placed on ice and 50 μL lysis buffer (Cisbio Assays, Bedford MA) was added. Phosphorylation of STAT3 was detected as described by the provider (Cisbio Assays). Briefly, cells were lysed for 30 min at room temperature and then 16 μL of lysates was added to a 384-well Proxiplate (Perkin Elmer, Waltham, MA). Anti-STAT3-d2+anti pSTAT-3-K detection cocktail (4μL; Cisbio Assays) was then added to the wells and the plate covered with a plate sealer and returned to 4°C overnight. Plates were then read with an Envision plate reader at ex 340, em 615 and 665 nm. […] These mixtures were then added to U937 cells for 15 min at 37°C and pSTAT3 was detected as described above."}, "[2]": {"experiment": "Comparative PK of PEGylated peptides in rats", "assay_type": "in vivo", "settings": "rat; male rats, single SC dose 0.23 μmol/kg, plasma, LC-MS/MS, non-compartmental; read-out: PK half-life (t1/2) (converted)", "description": "Male rats for pharmacokinetic studies were obtained from Harlan Laboratories (South Easton, MA. […] For all time points, blood samples were collected via retro-orbital eye bleed or exsanguination via abdominal aorta into tubes containing K2EDTA and were processed into plasma, which was placed in Eppendorf Protein LoBind tubes and stored frozen at approximately -70°C until quantitative bioanalysis.\nThe dosing solutions were formulated just prior to administration, in sterile 1X PBS with 0.1% BSA. Plasma sample extraction was performed by aliquoting 100 μL of each rat plasma sample into a standard 96-well plate. To each well, 400 μL of 5% formic acid in acetonitrile (containing 200 ng/mL of internal standard) was added. The plate was vortexed at high speed for approximately 10 min and then centrifuged for 15 min, 4700 x g at 4°C. Supernatant (425 μL) was transferred into a clean 96-well plate and evaporated to dryness under nitrogen at approximately 50°C. The extracts were then reconstituted in 50 μL of 1% formic acid in 60% acetonitrile.\nReconstituted extracts (5 μL) were analyzed by liquid chromatography-tandem mass spectrometry (LC-MS/MS) with positive electrospray ionization (QTrap 5500, AB SCIEX, Framingham, MA). […]"}, "IL-6/IL-6R": {"target": "T1, IL-6/IL-6R (Homo sapiens, UniProt P05231)", "T1 construct": "purchased PeproTech", "T1 sequence (P05231 30-212)": "as above", "experiment": "IL-6 – IL-6R competition ELISA", "assay_type": "binding", "settings": "compared to PN-1454", "protocol": "Peptides were initially evaluated using a competitive enzyme-linked immunosorbent assay (ELISA). High binding 96-well microtiter plates (half-area, Corning Life Sciences, Corning, NY)) were coated with 0.1 μg per well of IL-6R (PeproTech, Rocky Hill, NJ) overnight at 4°C. The wells were then blocked for 2 h with a 1% BSA (Sigma, St. Louis, MO) solution containing 0.1% Tween-20 (Amresco, Solon, OH) and subsequently washed with wash buffer (PBS containing 0.1% Tween-20). Peptides were serially diluted in assay buffer (0.1% BSA, 0.05% Tween-20 in PBS) and incubated with a 50 pM biotinylated IL-6 (PeproTech) for 30 min at room temperature. This mixture was then transferred to an assay plate, and the plate incubated for 1 h. The plate was washed with wash buffer, and presence of bound IL-6 detected through addition of streptavidin poly-horseradish peroxidase conjugate (Pierce, Rockford IL). Plates were developed using a TMB substrate kit (Pierce) and stopped with 2N H2SO4. Inhibition of complex formation was measured as a reduction in absorbance at 450 nm."}, "IL-6": {"system": "IL-6", "settings": "cited from earlier work", "description": "The inhibitory potency of PN-2921 was assessed in human whole blood ..."}},
  "note": "Positions of bridges follow the written chain, without caps; N, C: chain ends. Non-standard residues stand in square brackets, D forms with d. Residues, ends and D or L forms follow the SMILES beside them. Phe(4-F) = N[C@@H](Cc1ccc(F)cc1)C(=O)O; Gla = N[C@@H](CC(C(=O)O)C(=O)O)C(=O)O; Cha = N[C@@H](CC1CCCCC1)C(=O)O",
  "data": [
    {"compound": "CC[C@H](C)[C@@H]1NC(=O)[C@@H](NC(=O)[C@H](CC(=O)O)NC(=O)[C@H](CC2CCCCC2)NC(=O)[C@H](CC(=O)O)NC(=O)[C@H](CO)NC(=O)[C@H](CCC(N)=O)NC(C)=O)CSSC[C@@H](C(=O)N[C@@H](CCC(=O)O)C(=O)O)NC(=O)[C@H](CCC(=O)O)NC(=O)[C@H](CC(=O)O)NC(=O)[C@H](CC(N)=O)NC(=O)[C@H]([C@@H](C)CC)NC(=O)[C@H](CCCCN)NC(=O)[C@H](CC(C(=O)O)C(=O)O)NC(=O)[C@H]([C@@H](C)CC)NC(=O)[C@H](CCCNC(=N)N)NC(=O)[C@H](CCC(=O)O)NC(=O)[C@H](Cc2c[nH]c3ccccc23)NC(=O)[C@H](CCCNC(=N)N)NC(=O)[C@H](CCC(N)=O)NC(=O)[C@H](CCC(=O)O)NC(=O)[C@H](CCC(=O)O)NC(=O)[C@H]([C@@H](C)O)NC(=O)[C@H](CC(C)C)NC(=O)[C@H](CC(N)=O)NC(=O)[C@@H]2CCCN2C(=O)[C@H](CC(=O)O)NC(=O)[C@H](CC(C)C)NC(=O)[C@H](Cc2ccc(F)cc2)NC(=O)[C@H](C)NC(=O)[C@H](CCC(=O)O)NC(=O)[C@H](CC(C)C)NC(=O)[C@H](CC(C)C)NC(=O)[C@H](CCCNC(=N)N)NC(=O)[C@H](Cc2c[nH]cn2)NC1=O", "note": "[PN-2519] (Ac-QSD[Cha]DCIHRLLEA[Phe(4-F)]LDPNLTEEQRWERI[Gla]KINDECE-OH; disulfide 6-35)", "values": [
      {"measurement": "fold improvement in cell-based activity", "setting": "[1]; compared to PN-1974, U937 pSTAT3", "value": "~ 1000 fold"},
      {"measurement": "antagonist activity in the IL-6 pSTAT3 assay in U937 cells (Fig 2C)", "setting": "[1]; effect of PEG molecular weight, PEGylation at position 29", "value": "comparable"}
    ]},
    {"compound": "CC[C@H](C)[C@@H]1NC(=O)[C@@H](NC(=O)[C@H](CC(=O)O)NC(=O)[C@H](CC2CCCCC2)NC(=O)[C@H](CC(=O)O)NC(=O)[C@H](CO)NC(=O)[C@H](CCC(N)=O)NC(C)=O)CSSC[C@@H](C(=O)N[C@@H](CCC(=O)O)C(=O)O)NC(=O)[C@H](CCC(=O)O)NC(=O)[C@H](CC(=O)O)NC(=O)[C@H](CC(N)=O)NC(=O)[C@H]([C@@H](C)CC)NC(=O)[C@H](CCCCN)NC(=O)[C@H](CC(C(=O)O)C(=O)O)NC(=O)[C@H]([C@@H](C)CC)NC(=O)[C@H](CCCCN)NC(=O)[C@H](CCC(=O)O)NC(=O)[C@H](Cc2c[nH]c3ccccc23)NC(=O)[C@H](CCCNC(=N)N)NC(=O)[C@H](CCC(N)=O)NC(=O)[C@H](CCC(=O)O)NC(=O)[C@H](CCC(=O)O)NC(=O)[C@H]([C@@H](C)O)NC(=O)[C@H](CC(C)C)NC(=O)[C@H](CC(N)=O)NC(=O)[C@@H]2CCCN2C(=O)[C@H](CC(=O)O)NC(=O)[C@H](CC(C)C)NC(=O)[C@H](Cc2ccc(F)cc2)NC(=O)[C@H](C)NC(=O)[C@H](CCC(=O)O)NC(=O)[C@H](CC(C)C)NC(=O)[C@H](CC(C)C)NC(=O)[C@H](CCCNC(=N)N)NC(=O)[C@H](Cc2c[nH]cn2)NC1=O", "note": "[PN-2365] (Ac-QSD[Cha]DCIHRLLEA[Phe(4-F)]LDPNLTEEQRWEKI[Gla]KINDECE-OH; disulfide 6-35)", "values": [
      {"measurement": "half-life", "setting": "[2]", "value": 3.4, "unit": "h"}
    ]},
    {"compound": "CC[C@H](C)[C@@H]1NC(=O)[C@H](CCCCN)NC(=O)CNC(=O)[C@H](Cc2c[nH]c3ccccc23)NC(=O)[C@H](CCCNC(=N)N)NC(=O)[C@H](CCC(N)=O)NC(=O)[C@H](CCC(=O)O)NC(=O)[C@H](CO)NC(=O)[C@H](CC(N)=O)NC(=O)[C@H](CC(C)C)NC(=O)[C@H](CC(N)=O)NC(=O)[C@@H]2CCCN2C(=O)[C@H](CC(=O)O)NC(=O)[C@H](CC(C)C)NC(=O)[C@H](Cc2ccccc2)NC(=O)[C@H](C)NC(=O)[C@H](CCC(=O)O)NC(=O)[C@H](CC(C)C)NC(=O)[C@H](CC(C)C)NC(=O)[C@H](CCCNC(=N)N)NC(=O)[C@H](CCCNC(=N)N)NC(=O)[C@H]([C@@H](C)CC)NC(=O)[C@@H](NC(=O)[C@H](CCC(N)=O)NC(=O)[C@H](CC(C)C)NC(=O)[C@H](CC(N)=O)NC(=O)[C@H](Cc2ccccc2)NC(C)=O)CSSC[C@@H](C(N)=O)NC(=O)[C@H](CC(=O)O)NC(=O)[C@H](CC(=O)O)NC(=O)[C@H](CC(N)=O)NC(=O)[C@H]([C@@H](C)CC)NC(=O)[C@H](CO)NC(=O)[C@H](CC(=O)O)NC1=O", "note": "[PN-1484] (Ac-FNLQCIRRLLEAFLDPNLNSEQRWGKIDSINDDC-NH2; disulfide 5-34 (inferred))", "values": [
      {"measurement": "fold improvement in IC50 in the competitive ELISA", "setting": "IL-6/IL-6R", "value": "~ 20 fold"}
    ]},
    {"compound": "siltuximab: monoclonal antibody specific for IL-6", "values": [
      {"measurement": "potency", "setting": "IL-6", "value": "pM range"}
    ]}
  ]
}
